Patent US7709600B2, “Interaction between the VHL tumor suppressor and hypoxia inducible factor, and assay methods relating thereto” (Isis Innovation Limited, priority 1999, dated 2010)
Like-named read-outs stand apart in the source and are kept apart here.

Assays:
[1] = tested on: HIF-1α; assay: In vitro ubiquitylation assay for HIF-1α; assay type: biochemical, human
Procedure: To test the hypothesis that pVHL is a necessary component of a ubiquitin ligase complex recognising HIF-α we developed an in vitro ubiquitylation assay for HIF-1α. In this assay, cell extracts (initially from Cos-7) were incubated with [^35S]labelled HIF-1α prepared in vitro in reticulocyte lysates. This was used as substrate in reactions with different combinations of extract, an ATP-regenerating system, ubiquitin aldehyde, and methylated ubiquitin. Reactions were incubated at 30° C. for 270 minutes before analysis by SDS-PAGE.
Incubation with extract alone converted the HIF-1α substrate to a slower migrating form, an effect which was enhanced by an ATP-regenerating system, and was prevented by addition of the protein kinase inhibitor 2-aminopurine. […] This assignment was confirmed by enhancement with addition of ubiquitin aldehyde, an isopeptidase inhibitor that prevents the breakdown of ubiquitin conjugates.
An experiment similar to that of section (h) above was performed but with the omission of ubiquitin aldehyde. pVHL was generated by in vitro transcription translation, and HIF-1α was also generated in reticulocyte lysate in the presence or absence of 100 μM Fe2+ and Fe3+. […] Thus assays of the invention may be used for the identification of compounds acting at a point distal to the HIF-pVHL interaction (i.e. not altering binding but interfering with tagging or destruction). It also provides further evidence for modifications of HIF influencing its ability to bind pVHL. […]
In vitro ubiquitylation assay. […] Aliquots were removed at indicated times, mixed with SDS sample buffer and analysed by SDS-PAGE and autoradiography. Gels were quantitated using a Storm 840 PhosphorImager (Molecular Dynamics).

[2] = biological target: pVHL-HIF-1α interaction (Homo sapiens, UniProt P40337+Q16665); assay: pVHL interaction with HIF-1α sequences translated in reticulocyte lysate in the presence of metal ions; assay type: binding
[3] = biological target: pVHL/HIF-1 complex (Homo sapiens, UniProt P40337+Q16665); assay: EMSA / anti-pVHL supershift of the HIF-1 DNA binding complex from treated RCC4/VHL cells; conditions: for HIF-1 complex species seen in EMSA: RCC4/VHL cells cultured four hours, 100 μM
[4] = tested on: pVHL interaction with HIF-1α and HIF-2α; assay: Anti-pVHL immunoprecipitation of RCC4/VHL cell extracts, immunoblot for HIF α subunits; conditions: treated RCC4/VHL cells, compared with hypoxic cells
[5] = tested on: pVHL-HIF-1α interaction; assay: pVHL interaction with HIF-1α sequences translated in reticulocyte lysate in the presence of metal ions; assay type: binding, human; conditions: subsequences 556-574, 549-574, 556-582, 549-582; 100 μM Fe2+ and 100 μM Fe3+
[6] = full HIF-1α, 100 μM ion during translation

| Molecule | interaction of pVHL with HIF-1α translated in the presence of the ion [2, 6] | HIF-1 complex species seen in EMSA [3] | HIF-1α and HIF-2α contained in anti-pVHL immunoprecipitates [4] | other results |
| --- | --- | --- | --- | --- |
| Nc1ncc2[nH]cnc2n1 [2-aminopurine] |  |  |  | conversion of HIF-1α substrate to a slower migrating form (phosphorylation) ([1]; Cos-7 cell extract, 30° C.): prevented |
| [Cl-].[Cl-].[Co+2] [cobalt, cobaltous chloride] | diminishes | only the faster mobility HIF-1 complex | neither protein was contained |  |
| CC(=O)N(O)CCCCCNC(=O)CCC(=O)N(O)CCCCCNC(=O)CCC(=O)N(O)CCCCCN [desferrioxamine] |  | only the faster mobility HIF-1 complex | neither protein was contained | pVHL/HIF-1 complex forming ([3]; treatment four hours prior to hypoxia): prevented |
| [Ni+2] [nickel] |  |  |  | interaction of pVHL with HIF-1α translated in the presence of the ion [2]: diminishes |
| iron | enhances |  |  | amount of interaction of pVHL with HIF-1 subsequences [5]: substantial increase; ubiquitylation of HIF-1α produced in the presence of the ions ([1]; HIF-1α generated in reticulocyte lysate with 100 μM Fe2+ and Fe3+, ubiquitin aldehyde omitted): Enhanced ubiquitylation |
| ubiquitin aldehyde |  |  |  | generation of high molecular weight polyubiquitylated HIF-1α species ([1]; Cos-7 cell extract, 30° C., 270 minutes): enhancement |
